Assay results from patent US6528251B2, “Method of managing the chemotherapy of patients who are HIV positive based on the phenotypic drug sensitivity of human HIV strains” (Virco N.V., priority 1996, dated 2003).
Where two headings read alike, the source gives them in different places.

Experiments:
Format in all cases: cell-based, HIV-1
[1] = system: recombinant virus from patient viral RNA (Example 6, drug-naive patient); test: Recombinant virus assay (MT4/MTT), drug-naive patient of Example 6; conditions: for IC50: Human immunodeficiency virus 1, Table 2, Example 6 patient virus; for ratio (1)/(2): Table 2, patient mean IC50 / recIIIB IC50, Example 6
Method: (§1) RNA was isolated from 100 μl of plasma according to the method described by Boom, R. et al. (1990, supra), and was reverse transcribed with the GeneAmp reverse transcriptase kit (Perkin Elmer) as described by the manufacturer and using an HIV-1 specific downstream primer (OUT3: 5′-CATTGCTCTCCAATTACTGTGATATTTCTCATC-3′; SEQ ID NO: 1). PCR on reverse transcribed RNA was performed with inner and outer primers as described by Kellam, P. and Larder, B. A. (1994, supra). After chloroform extraction and centrifugation on Centricon 100 columns or centrifugation on anion-exchange spin columns (Quiagen), the isolated PCR product was ready for use in the transfection reactions.
(§2) MT4 cells were subcultured at a density of 250,000 cells/ml before transfection (exponential growth phase). Cells were pelleted and resuspended in phosphate buffered saline (PBS) at a concentration of […]. A 0.8 ml portion (2.5 10E6 cells/ml) was used for each transfection. Transfection was performed with the Bio-Rad Gene pulser making use of 0.4 cm electrode cuvettes. Cells were electroporated in the presence of […] of linearised pHIVΔRT plasmid and approximately 5 μg of RT PCR product at 250SF and 300 V, followed by a 30-min incubation at room temperature. Subsequently, 10 ml of fresh culture medium was added to the cell suspension and incubation was performed at 37° C. in a humidified atmosphere of 5% CO2.
(§3) During 7 to 10 days following the transfection, cells were monitored for the appearance of cytopathogenic effect (CPE). In the absence thereof, cells were subcultured in different flasks. Subsequently, culture supernatants of transfected cells were used to create a stock of recombinant virus and stored in 1.5 ml aliquots at −70° C.
(§4) After titration of the new viruses, the stocks were used for antiviral experiments in the presence of serial dilutions of different HIV inhibitors. Titres of the harvested supematants were determined by limited serial dilution titration of virus in MT4 cells.
(§5) Viruses with a useful titre were used in antiviral experiments. For this purpose, 96-well microtitre plates were filled with 100μl of complete culture medium. Subsequently, stock solutions of compounds were added in 25 μl volumes to series of duplicate wells. HIV- and mock-infected cell samples were included for each drug (or drug combination). Exponentially growing MT4 cells were then transferred to the microtitre plates at a density of 150,000 cells/ml. The cell cultures were then incubated at 37° C. in a humidified atmosphere of 5% CO2. Five days after infection, the viability of the mock- and HIV-infected cells was examined spectrophotometrically by the M1T method (Pauwels, R. et al. J. Virol. Meth. (1988), 20: 309-321) as described in Section 6 below.
(§6) To each well of the microtiter plates, 20 μl of a solution of MTT (7.5 mg/ml in PBS) was added. The plates were further incubated at 37° C. for 1 h. Then, 150 μl of medium was removed without disturbing the MT4 cell clusters containing the formazan crystals. Solubilization of the formazan crystals was achieved by adding 100 μl 5% Triton X-100 in acidified isopropanol (5 ml concentrated HCl per liter solvent). Complete dissolution of the formazan crystals was obtained after the plates had been placed on a plate shaker for 10 min. Finally the absorbances were read at two wavelengths (540 and 690 nm). From these optical density (OD) data, 50% inhibitory (IC50) and 50% cytotoxic (CC50) concentrations were derived.
A drug-naive HIV infected patient donated plasma whose susceptibility to a number of RT inhibitors was determined according to the above described protocol of Example 1. Recombinant wild type HIV strain recIIIB was used in said protocol as a reference HIV virus.

[2] = system: recombinant virus from patient viral RNA (Example 9); test: Recombinant virus assay (MT4/MTT), patient of Example 9 (multiple nucleoside analogue RT-inhibitors); conditions: for IC50: Human immunodeficiency virus 1, Table 5, Example 9 patient virus; for ratio (1)/(2): Table 5, patient mean IC50 / recIIIB IC50, Example 9
Method: as §1, §2, §3, §4, §5, §6
An HIV-infected patient with a therapy history including multiple nucleoside analogue RT-inhibitors donated plasma whose susceptibility to a number of RT inhibitors was determined according to the protocol set out in Example 1. Recombinant wild type HIV strain recIIIB was used as a reference HIV virus.

[3] = system: recombinant virus from patient viral RNA (Example 5, 3TC resistant HIV strains); test: Recombinant virus assay (MT4/MTT), patient of Example 5 (AZT, then AZT+3TC therapy); conditions: for ratio (1)/(2): Table 1, patient mean IC50 / recIIIB IC50, Example 5
Method: as §1, §2, §3, §4, §5, §6
An HIV infected patient who received AZT from December 1989 until an undocumented later date, and switched to a combined chemotherapy of AZT+3TC (1:1) from February 1994 until October 1995 donated plasma whose susceptibility to a number of RT inhibitors was determined according to the above described protocol of Example 1. Recombinant wild type HIV strain recIIIB was used in said protocol as a reference HIV virus.

[4] = system: recombinant virus from patient viral RNA (Example 8); test: Recombinant virus assay (MT4/MTT), patient of Example 8 (therapy history AZT, 3TC and loviride); conditions: for IC50: Human immunodeficiency virus 1, Table 4, Example 8 patient virus; for ratio (1)/(2): Table 4, patient mean IC50 / recIIIB IC50, Example 8
Method: as §1, §2, §3, §4, §5, §6
An HIV-infected patient with a therapy history including AZT, 3TC and loviride donated plasma whose susceptibility to a number of RT inhibitors was determined according to the protocol set out in Example 1. Recombinant wild type HIV strain recIIIB was used as a reference HIV virus.

[5] = system: recombinant virus from patient viral RNA (Example 7, drug-naive patient); test: Recombinant virus assay (MT4/MTT), drug-naive patient of Example 7; conditions: for IC50: Human immunodeficiency virus 1, Table 3, Example 7 patient virus; for ratio (1)/(2): Table 3, patient mean IC50 / recIIIB IC50, Example 7
Method: as §1, §2, §3, §4, §5, §6
A drug-naive HIV-infected patient donated plasma whose susceptibility to a number of RT inhibitors was determined according to the protocol set out in Example 1. Recombinant wild type HIV strain recIIIB was used as a reference HIV virus.

[6] = system: Recombinant wild type HIV strain recIIIB; test: Antiviral MT4/MTT assay with reference virus recIIIB
Method: as §4, §5, §6

[7] = MT4 cells, read-out: Anti-HIV-1 activity IC50 (μM) Exp. 1
[8] = MT4 cells, read-out: Anti-HIV-1 activity IC50 (μM) Exp. 2
[9] = mean of Exp. 1 and 2, read-out: Anti-HIV-1 activity IC50 (μM) Mean (1)
[10] = mean, read-out: Anti-HIV-1 activity IC50 (μM) Mean (1)
[11] = Human immunodeficiency virus 1, Table 1, Example 5 patient virus, MT4 cells, read-out: Anti-HIV-1 activity IC50 (μM) Exp. 1
[12] = Human immunodeficiency virus 1, Table 1, Example 5 patient virus, MT4 cells, read-out: Anti-HIV-1 activity IC50 (μM) Exp. 2
[13] = Human immunodeficiency virus 1, Table 1, Example 5 patient virus, mean of Exp. 1 and 2, read-out: Anti-HIV-1 activity IC50 (μM) Mean (1)
[14] = Human immunodeficiency virus 1, Table 1, reference run of Example 5, read-out: Anti-HIV-1 activity IC50 (μM) recIIIB ref (2)
[15] = Human immunodeficiency virus 1, Table 2, reference run of Example 6, read-out: Anti-HIV-1 activity IC50 (μM) recIIIB ref (2)
[16] = Human immunodeficiency virus 1, Table 3, reference run of Example 7, read-out: Anti-HIV-1 activity IC50 (μM) recIIIB ref (2)
[17] = Human immunodeficiency virus 1, Table 4, reference run of Example 8, read-out: Anti-HIV-1 activity IC50 (μM) recIIIB ref (2)
[18] = Human immunodeficiency virus 1, Table 5, reference run of Example 9, read-out: Anti-HIV-1 activity IC50 (μM) recIIIB ref (2)
[19] = Human immunodeficiency virus 1, Table 6, reference run of Example 10, read-out: Anti-HIV-1 activity IC50 (μM) recIIIB ref (2)

Row | SMILES | IC50 [1, 7] [µM] | IC50 [1, 8] [µM] | IC50 [1, 9] [µM] | ratio (1)/(2) [1] | IC50 [2, 7] [µM] | IC50 [2, 8] [µM] | IC50 [2, 10] [µM] | ratio (1)/(2) [2] | ratio (1)/(2) [3] | IC50 [4, 7] [µM] | IC50 [4, 8] [µM] | IC50 [4, 10] [µM] | ratio (1)/(2) [4] | IC50 [5, 7] [µM] | IC50 [5, 10] [µM] | ratio (1)/(2) [5] | IC50 [6, 15] [µM] | IC50 [6, 16] [µM] | IC50 [6, 17] [µM] | IC50 [6, 18] [µM] | other results
1 | Nc1ccn([C@@H]2CS[C@H](CO)O2)c(=O)n1 [3TC, lamivudine] | 1.81 | 2.02 | 1.91 | 1 | > 100 | > 100 | > 100 | >6 | 118 | > 100 | > 100 | > 100 | >16 | 2.17 | 2.17 | 2 | 3.08 | 1.38 | 6.3 | 16.7 | IC50 [3, 11]: 31.6 µM; IC50 [3, 12]: 100 µM; IC50 [3, 13]: 65.8 µM; IC50 [6, 14]: 0.56 µM; IC50 [6, 19]: 4.61 µM; IC50 ([6]; Human immunodeficiency virus 1, read-out: Anti-HIV-1 activity IC50 (μM) recIIIB ref (2), Table 7, reference run of Example 11): 5.18 µM; IC50 ([6]; Human immunodeficiency virus 1, read-out: Anti-HIV-1 activity IC50 (μM) recIIIB ref (2), Table 8, reference run of Example 12): 4.61 µM
2 | Cc1cn([C@H]2C[C@H](N=[N+]=[N-])[C@@H](CO)O2)c(=O)[nH]c1=O [AZT, zidovudine] | 0.04 | 0.05 | 0.05 | 1 | > 100 | – | > 100 | >344 | 0.4 | 18.3 | 22.3 | 20.3 | 241 | 0.052 | 0.051 | 2 | 0.06 | 0.023 | 0.084 | 0.291 | IC50 [3, 11]: 0.001 µM; IC50 [3, 12]: 0.002 µM; IC50 [3, 13]: 0.002 µM; IC50 [5, 8]: 0.05 µM; IC50 [6, 14]: 0.004 µM; IC50 [6, 19]: 0.041 µM; IC50 ([6]; Human immunodeficiency virus 1, Table 7, reference run of Example 11, read-out: Anti-HIV-1 activity IC50 (μM) recIIIB ref (2)): 0.047 µM; IC50 ([6]; Human immunodeficiency virus 1, Table 8, reference run of Example 12, read-out: Anti-HIV-1 activity IC50 (μM) recIIIB ref (2)): 0.041 µM
3 | Cc1cn([C@H]2C=C[C@@H](CO)O2)c(=O)[nH]c1=O [d4T, stavudine] | 1.31 | 0.97 | 1.14 | 1 | > 100 | > 100 | > 100 | >8 | 0.5 | 7.5 | 7.1 | 7.3 | 1 | 1.14 | 1.4 | 1 | 1.74 | 1.37 | 5.46 | 12 | IC50 ([3]; Human immunodeficiency virus 1, MT4, read-out: Anti-HIV-1 activity IC50 (μM) Exp. 1): 0.07 µM; IC50 ([3]; Human immunodeficiency virus 1, MT4, read-out: Anti-HIV-1 activity IC50 (μM) Exp. 2): 0.49 µM; IC50 ([3]; Human immunodeficiency virus 1, read-out: Anti-HIV-1 activity IC50 (μM) Mean (1)): 0.06 µM; IC50 [5, 8]: 1.66 µM; IC50 ([6]; Human immunodeficiency virus 1, read-out: Anti-HIV-1 activity IC50 (μM) recIIIB ref (2), Table 1, reference run of Example 5): 0.12 µM
4 | Nc1ccn([C@H]2CC[C@@H](CO)O2)c(=O)n1 [ddC, zalcitabine] | 1.45 | 1.47 | 1.46 | 1 | 60.1 | 73 | 66.6 | 19 | 0.5 | 9.29 | 8.51 | 8.9 | 5 | 1.04 | 1.22 | 0.8 | 2.21 | 1.62 | 1.93 | 3.44 | IC50 [3, 11]: 0.2 µM; IC50 [3, 12]: 0.2 µM; IC50 [3, 13]: 0.2 µM; IC50 [5, 8]: 1.39 µM; IC50 [6, 14]: 0.38 µM
